# Measured values reported in PMC9078504, “Antiacetylcholinesterase triterpenes from the fruits of Cimicifuga yunnanensis” (RSC Advances, 2018).
# Target: T1, acetylcholinesterase (AChE) (Homo sapiens, UniProt P22303)
# T1 construct: derived from human erythrocytes (Sigma)
# Assay: Ellman spectrophotometric assay, acetylthiocholine hydrolysis at […] nm
# Format: biochemical
# T1 sequence (P22303 32-614): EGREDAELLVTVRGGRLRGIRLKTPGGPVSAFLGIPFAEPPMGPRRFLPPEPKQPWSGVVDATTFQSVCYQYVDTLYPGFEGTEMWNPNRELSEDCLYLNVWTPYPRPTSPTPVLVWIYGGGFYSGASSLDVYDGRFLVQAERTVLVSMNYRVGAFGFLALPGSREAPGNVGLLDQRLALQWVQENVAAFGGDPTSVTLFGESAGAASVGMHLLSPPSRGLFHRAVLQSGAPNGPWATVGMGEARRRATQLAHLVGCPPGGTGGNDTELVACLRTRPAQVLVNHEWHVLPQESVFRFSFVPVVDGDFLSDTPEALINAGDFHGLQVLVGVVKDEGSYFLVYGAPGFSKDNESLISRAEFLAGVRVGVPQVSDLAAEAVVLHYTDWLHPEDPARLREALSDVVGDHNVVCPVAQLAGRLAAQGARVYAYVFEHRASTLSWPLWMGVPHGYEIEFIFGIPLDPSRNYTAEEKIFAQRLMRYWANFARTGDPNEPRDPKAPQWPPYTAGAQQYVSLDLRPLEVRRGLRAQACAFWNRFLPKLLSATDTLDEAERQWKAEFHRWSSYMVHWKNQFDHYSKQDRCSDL
row,SMILES,IC50 [µM]
1,"CC(=O)O[C@@H]1C[C@@]23C[C@@]24CC[C@H](O[C@@H]2OC[C@H](O)[C@H](O)[C@H]2O)C(C)(C)[C@@H]4CC=C3[C@]2(C)C(=O)C(=O)[C@@]3(O[C@@H]([C@H](O)C(C)(C)O)C[C@H]3C)[C@@]12C [compound 1, (3β,12β,17S,20R,23R,24S)-17,23-Epoxy-15,16-dione-12-acetoxy-3,25-dihydroxy-7-en-9,19-cycloart-3-O-α-larabinopyranoside]",1.58
2,"Cc1cc(C=O)nc2c1[C@@]1(C)C[C@H](O)[C@@]34C[C@@]35CC[C@H](O[C@@H]3OC[C@H](O)[C@H](O)[C@H]3O)C(C)(C)[C@@H]5CC=C4[C@]1(C)C2 [compound 2, (3β,11β)-11-Hydroxy-16,23-nitrilo-7,17(20),22-trien-24-formyl-25,26,27-trinor-9,19-cycloart-3-O-α-larabinopyranoside]",3.87
